Common to all, as to format: binding
Assay [1] concerns T1, STAT5B-NTD.
T1 construct: His-SUMO (N, cleaved yes); made in house; host or cells: E. coli BL21 RILP
The assay can be described thus: Intact MS labeling screen, STAT5B-NTD conjugated with photocatalyst Ir-G2-PEG3-COOH (450 nm).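 Note: 0.14 µL of 100 mM DMSO fragment stock added to the conjugate.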 The note with it: 450 nm 10 min. On the procedure:
For the photocatalysis experiments, 1.4 µL photocatalyst (in 1.4 mM DMSO solution, 10 eq) was pre-incubated with 1.5 µL coupling reagent (0.75 µL, 5.6 mM EDC (20 eq)+0.75 µL 4.2 mM NHS and 1.5 µL 2.1 mM (15 eq) BOP for 30 min in dark. 30 µL STAT5B-NTD (in 7 µM concentration) was added and incubated further at room temperature overnight or at 37 °C for 1 h in dark. After addition of 0.14 µL PhP (in 100 mM DMSO) the solution was further incubated in dark for 1 h. Irradiation was carried out using 450 nm LED lamp (7.6Vx0A) for 10 min at 4 °C.
(§1) During the analysis, the column temperature was maintained at a constant 60 °C, and a sample volume of 3 µL was injected for each analysis. Data acquisition was conducted in positive ion mode within the m/z 100–2000 (mass-to-charge ratio) range. For the full protocol and spectra of the hits, see Supplementary Note 2.

A further assay deals with T2, KRas^G12D.
T2 construct: purchased GSK/GenScript
In words: Intact MS photoaffinity labeling screen, KRas G12D (302 nm, LCMS-TOF). The settings on record: for MS labeling percentage, KRas: KRas G12D, 302 nm 10 min. On the procedure: (§2) Using a plate-based format with one fragment per well, each fragment was incubated with the target proteins for 15 min to allow for the formation of non-covalent interactions. […] Finally, the results were directly analyzed from the plate using intact protein mass spectrometry by observing the mass additions that correspond to successful labeling (Fig. 2c, for labeling % values see Supplementary data). The library was first characterized against three benchmark proteins like carbonic anhydrase (CA), lysozyme (Lyo), and myoglobin (Myo).
(§3) The PhP library was screened against BRD4-BD1 and KRas^G12D as follows. […] The probe plate was placed on ice. 15 μL of protein stock solution (1 μM BRD4-BD1 (GSK/GenScript) or KRas^G12D (GSK/GenScript) in PBS buffer) was dispensed into wells containing fragments. The plate was left on ice for 15 min for incubation, then irradiated at 302 nm for 10 min, and centrifuged (1000 rpm, 1 min) to remove any bubbles. […] The deconvoluted spectra were analyzed using R Studio software.

For a further assay, the system named is T3, BRD4-BD1.
T3 construct: screened the PhP library against the first bromodomain of BRD4 (BRD4-BD1); purchased GSK/GenScript
The assay can be described thus: Intact MS photoaffinity labeling screen, BRD4-BD1 (302 nm, LCMS-TOF). The note with it: for MS labeling percentage, BRD4: BRD4-BD1, 302 nm 10 min. How it is done: as §2, §3

Assay [2] has as its system T1, STAT5B-NTD. The assay can be described thus: Intact MS photoaffinity labeling screen, STAT5B-NTD (365 nm, UHPLC-MS).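 For MS labeling percentage, STAT5B: 0.17 µL of 100 mM DMSO fragment stock added to the protein sample.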 The note with it: for MS labeling percentage, STAT5B: STAT5B-NTD, 365 nm 10 min, no photocatalyst. On the procedure:
STAT5B protein in 7 µM concentration in pH 7.4 PBS buffer was pre-incubated with 0.17 µL PhP (in 100 mM DMSO solution) for 1 h at room temperature in dark. Irradiation was carried out at 4 °C for 10 min using 365 nm UV lamp.
as §1

Assay [3] concerns carbonic anhydrase II (CA). The assay can be described thus: Intact protein MS photoaffinity labeling screen, carbonic anhydrase. The settings on record: intact protein MS after 10 min irradiation. How it is done: as §2
The test system of the next assay is lysozyme (Lyo). The assay can be described thus: Intact protein MS photoaffinity labeling screen, lysozyme. The note with it: intact protein MS after 10 min irradiation. On the procedure:
as §2

Another assay concerns myoglobin (Myo). In words: Intact protein MS photoaffinity labeling screen, myoglobin. The settings on record: intact protein MS after 10 min irradiation. How it is done: as §2
[4] abbreviates: PhP library sheet "PhP", binary flag printed as 0 or 1, key not given.
[5] abbreviates: hit flag 1/0, sheet PhP, photoaffinity labeling screen.

As for `CC1(CCC(=O)NCCNC(=O)c2ccncc2)N=N1` [PhP084, N1=NC1(C)CCC(=O)NCCNC(=O)c2ccncc2], in the assay on STAT5B-NTD [1], the “MS labeling percentage, STAT5B+photocat” value was 0.7%. The “MS labeling percentage, KRas” value in the assay on KRas^G12D worked out at 0.3%. The “KRAS-G12D (experimental hit status)” value in the assay with KRas^G12D (setting [4]) is on record as 0. The “MS labeling percentage, BRD4” value with BRD4-BD1 stood at 0.9%. Besides, in the assay on BRD4-BD1 (setting [4]), the “BRD4-BD1 (experimental hit status)” value is 0. Also, in the assay on STAT5B-NTD [2] (setting [4]), the “STAT5B-NTD (experimental hit status)” value was 0. For the same compound, the “MS labeling percentage, STAT5B” value in the assay with STAT5B-NTD [2] is listed as 0%. Further, the “MS labeling percentage, CA” value in assay [3] is listed as 1.6%. The “MS labeling percentage, Lyo” value in the assay on lysozyme (Lyo) was found to be 0%. For the same compound, the “MS labeling percentage, Myo” value in the assay with myoglobin (Myo) was found to be 0.4%.
As for `Cn1ccnc1-c1cc(NC(=O)CCC2(C)N=N2)n[nH]1` [PhP043, Cn1ccnc1-c2cc(n[nH]2)NC(=O)CCC3(C)N=N3], in the assay on STAT5B-NTD [1], the “MS labeling percentage, STAT5B+photocat” value is 0%. Moreover, in the assay with KRas^G12D, the “MS labeling percentage, KRas” value is 0.3%. Besides, the “KRAS-G12D (experimental hit status)” value in the assay on KRas^G12D (setting [5]) amounted to 0. For the same compound, the “MS labeling percentage, BRD4” value in the assay with BRD4-BD1 is 0.8%. For the same compound, the “BRD4-BD1 (experimental hit status)” value with BRD4-BD1 (setting [5]) was 0. Also, in the assay on STAT5B-NTD [2], the “MS labeling percentage, STAT5B” value worked out at 1%. In the assay on STAT5B-NTD [2] (setting [5]), the “STAT5B-NTD (experimental hit status)” value came to 0. Besides, the “MS labeling percentage, CA” value in assay [3] came out at 0.5%. The “MS labeling percentage, Lyo” value in the assay on lysozyme (Lyo) is given as 0%. In addition, the “MS labeling percentage, Myo” value in the assay on myoglobin (Myo) was 0.1%.
For `CC1(CCC(=O)NC2CCc3nccn3C2)N=N1` (stereo not drawn) [PhP047, N1=NC1(C)CCC(=O)NC(CC2)Cn(c23)ccn3], the “MS labeling percentage, STAT5B+photocat” value in the assay on STAT5B-NTD [1] was 2.1%. In addition, the “MS labeling percentage, KRas” value in the assay on KRas^G12D is reported as 0.1%. In the assay on KRas^G12D (setting [5]), the “KRAS-G12D (experimental hit status)” value was determined as 0. In the assay on BRD4-BD1, the “MS labeling percentage, BRD4” value was found to be 0.5%. The “BRD4-BD1 (experimental hit status)” value with BRD4-BD1 (setting [5]) is 0. In addition, in the assay with STAT5B-NTD [2], the “MS labeling percentage, STAT5B” value worked out at 0%. Further, in the assay with STAT5B-NTD [2] (setting [5]), the “STAT5B-NTD (experimental hit status)” value is on record as 0. In addition, the “MS labeling percentage, CA” value in assay [3] came out at 0.6%. For the same compound, the “MS labeling percentage, Lyo” value in the assay with lysozyme (Lyo) was 0%. Moreover, in the assay with myoglobin (Myo), the “MS labeling percentage, Myo” value is on record as 0%.
`CC1(CCC(=O)Nc2ccc(N3CCCCC3)cc2C(N)=O)N=N1` [PhP054, N1=NC1(C)CCC(=O)Nc2ccc(cc2C(=O)N)N3CCCCC3]: the “MS labeling percentage, STAT5B+photocat” value in the assay on STAT5B-NTD [1] is recorded as 9.8%. Besides, the “MS labeling percentage, KRas” value with KRas^G12D is recorded as 0%. In addition, the “KRAS-G12D (experimental hit status)” value with KRas^G12D (setting [5]) is given as 0. The “MS labeling percentage, BRD4” value with BRD4-BD1 is on record as 0.6%. Moreover, the “BRD4-BD1 (experimental hit status)” value in the assay with BRD4-BD1 (setting [5]) was found to be 0. For the same compound, the “MS labeling percentage, STAT5B” value in the assay on STAT5B-NTD [2] amounted to 2.9%. Also, the “STAT5B-NTD (experimental hit status)” value with STAT5B-NTD [2] (setting [5]) is recorded as 0. In assay [3], the “MS labeling percentage, CA” value was determined as 0%. The “MS labeling percentage, Lyo” value in the assay on lysozyme (Lyo) is 0%. Also, in the assay on myoglobin (Myo), the “MS labeling percentage, Myo” value was 0%.
For the compound `CC1(CCC(=O)NC(COCc2ccccc2)C(=O)OCc2ccccc2)N=N1` (stereo not drawn) [PhP086, c1ccccc1COC(=O)C(NC(=O)CCC2(C)N=N2)COCc3ccccc3], the “MS labeling percentage, STAT5B+photocat” value with STAT5B-NTD [1] is on record as 4.6%. In addition, the “MS labeling percentage, KRas” value in the assay on KRas^G12D worked out at 0.3%. Besides, in the assay on KRas^G12D (setting [4]), the “KRAS-G12D (experimental hit status)” value is 0. The “MS labeling percentage, BRD4” value with BRD4-BD1 was found to be 0.2%. The “BRD4-BD1 (experimental hit status)” value in the assay on BRD4-BD1 (setting [4]) is given as 0. In the assay with STAT5B-NTD [2] (setting [4]), the “STAT5B-NTD (experimental hit status)” value turned out to be 0. The “MS labeling percentage, STAT5B” value with STAT5B-NTD [2] is 0%. The “MS labeling percentage, CA” value in assay [3] was determined as 0.4%. The “MS labeling percentage, Lyo” value in the assay with lysozyme (Lyo) came to 0%. In addition, the “MS labeling percentage, Myo” value in the assay with myoglobin (Myo) was found to be 0.2%.
Regarding `Cn1cnc(CCNC(=O)CCC2(C)N=N2)c1` [PhP091, Cn1cnc(c1)CCNC(=O)CCC2(C)N=N2], the “MS labeling percentage, STAT5B+photocat” value in the assay with STAT5B-NTD [1] is recorded as 0.3%. The “MS labeling percentage, KRas” value in the assay with KRas^G12D was found to be 0.2%. The “KRAS-G12D (experimental hit status)” value in the assay on KRas^G12D (setting [4]) is listed as 0. For the same compound, in the assay with BRD4-BD1, the “MS labeling percentage, BRD4” value amounted to 0.2%. Further, in the assay with BRD4-BD1 (setting [4]), the “BRD4-BD1 (experimental hit status)” value is given as 0. In the assay with STAT5B-NTD [2] (setting [4]), the “STAT5B-NTD (experimental hit status)” value is 0. Further, the “MS labeling percentage, STAT5B” value in the assay on STAT5B-NTD [2] stood at 0%. For the same compound, in assay [3], the “MS labeling percentage, CA” value is recorded as 0.7%. The “MS labeling percentage, Lyo” value in the assay with lysozyme (Lyo) was found to be 0%. The “MS labeling percentage, Myo” value in the assay with myoglobin (Myo) was determined as 0.1%.

Source of the values: paper PMC11292009, “Mapping protein binding sites by photoreactive fragment pharmacophores” (Communications Chemistry, 2024).
